Values of other authors as cited in US20110236307A1, “IN VIVO IMAGING METHOD” (priority 2008, published 2011).

Test system: protein deposition in PD
Details: PD patients, brain

For [11CH3]Nc1ccc(-c2nc3ccc(O)cc3s2)cc1 [[^11C]PIB, ^11C-6-OH-benzothiazole], the “in vivo binding pattern” value is listed as “decreased from the brainstem to the cortical areas”.
